{"source": "patent US20050051179A1", "about": "“Simple apparatus for preparing experimental models of brain neuronal damage and preparation of secondary brain damage model with methods for evaluation of drug efficacy of novel compounds against brain damage and memory-related events” (priority 2003, published 2005)", "key": {"[1]": {"system": "SBD generated with the drop weight apparatus", "experiment": "MRI findings and cerebral blood flow (CBF) velocity after drop-weight impact (240 cm·g)", "type": "in vivo, dog", "settings": "dogs", "text": "(§1) Eight healthy 4-year-old male Beagle dogs were anesthetized before a square piece of skull (1.2×1.2 cm^2) was craniectomized. As two different cerebral injuries were involved in the study, a unilateral parietal bone was drilled and the brain surface surgically exposed without removing the dura mater. In two randomized dogs, a self-designed 5-mm spherical DCN with reproducibility was applied to generate concussion (CC in Table 1). In the remaining four dogs, the WD method was employed under the following experimental conditions: a weight of 12-g mass with a drop-distance of 20 cm to generate an impact of 240 cm·g.\n(§2) MRI findings were performed with superconductor magnetism of magnetic field intensity 0.5T (Flexart MRT-50GP; Toshiba Medical Co., Ltd.). CBF velocities of DCN (n=2) and drop-weight-inflicted (n=4) dogs (including craniectomized skull-replaced dogs) were measured via MRI using the 3D-phase shift magnetic resonance angiography with presaturation pulse (PAMRA: TE=25, TR=10). Craniectomized skull-chips were replaced and kept in position with adhesive."}, "[2]": {"system": "pyramidal cells of hippocampal CA1 field", "experiment": "Viable pyramidal cell counts per unit area, hippocampal CA1 field, after drop-weight impact", "type": "in vivo, rat", "settings": "rats, 3 mg/kg i.p. before impact", "procedure": "(§3) Male Fisher rats weighing 400-450 g were anesthetized with sodium pentobarbital (Nembutal; Dainippon Pharmaceutical Co., Ltd., Osaka) by i.p. administration (40 mg/kg) before the head was restrained in a stereotaxic apparatus. Weight 20 of 5-gram mass positioned at a drop-distance of 10 cm was dropped onto the brain surface under gravitational force to generate an impact of 50 cm·g, causing a head injury. Follow-up studies of the progress of subsequent events from 1 to 48 hours post-impact were monitored with the MRI approach.\n(§4) Immediately after impact, MRI diagnoses were conducted to categorize animals as (i) no injuries, (ii) no subarachinoid hemorrhage and (iii) external wounds and hemorrhages inflicted on brain surface, etc. Animals having such criteria were omitted from subsequent studies. Animals with confirmed cerebral injuries but without these criteria were divided into groups of six each.\nAlong with MRI findings from 1 to 48 hours post-impact, brain injuries were also evaluated histopathologically using the cardioperfusion method with 200 mL of physiological saline (0.9 w/w %) to first remove blood cells followed by fixation with 50 mL of 0.1 MPBS (pH: 7.4) containing 4% paraformaldehyde (PFA). Brain tissues were then embedded in paraffin and coronal sections of the brain specimens were sectioned before staining with the hematoxylin-eosin (H&E) reagent.\nWith regard to the therapeutic effects of chemical agents tested, viable pyramidal cell counts per unit area (1 mm^2) of tissues in hippocampal CA1 and CA3 fields were determined to derive the area of tissue damage/injury using image-analysis software (NIH Co., Ltd.; Image Ver. 1.55). As for the extent of tissue damage, slices with the maximum damage area between two groups were compared."}, "[3]": {"system": "pyramidal cells of hippocampal CA3 field", "experiment": "Viable pyramidal cell counts per unit area, hippocampal CA3 field, after drop-weight impact", "type": "in vivo, rat", "settings": "rats, 3 mg/kg i.p. before impact", "procedure": "as §3\nImmediately after impact, MRI diagnoses were conducted to categorize animals as (i) no injuries, (ii) no subarachinoid hemorrhage and (iii) external wounds and hemorrhages inflicted on brain surface, etc. Animals having such criteria were omitted from subsequent studies. […]\nAlong with MRI findings from 1 to 48 hours post-impact, brain injuries were also evaluated histopathologically using the cardioperfusion method with 200 mL of physiological saline (0.9 w/w %) to first remove blood cells followed by fixation with 50 mL of 0.1 MPBS (pH: 7.4) containing 4% paraformaldehyde (PFA). […]\nWith regard to the therapeutic effects of chemical agents tested, viable pyramidal cell counts per unit area (1 mm^2) of tissues in hippocampal CA1 and CA3 fields were determined to derive the area of tissue damage/injury using image-analysis software (NIH Co., Ltd.; Image Ver. 1.55). […]"}, "[4]": {"system": "SBD derived from experimental head injury", "experiment": "MRI diagnosis of cerebral injuries after drop-weight impact (SBD model)", "type": "in vivo, rat", "settings": "rats, 3 mg/kg i.p. before impact of 50 cm·g; 1 hr post-impact", "procedure": "as §3, §4"}, "[5]": {"system": "direct contusion nest (DCN) injury", "experiment": "MRI findings and cerebral blood flow (CBF) velocity after direct contusion nest (DCN)", "type": "in vivo, dog", "text": "as §1, §2"}}}
{"smiles": "C[C@]12N[C@H](Cc3ccccc31)c1ccccc12", "note": "[MK-801]", "values": [{"measurement": "time-related expansion of damage after impact (MRI)", "setting": "[1]; drop weight group with drug pretreatment, 240 cm·g", "value": "not established"}, {"measurement": "SBD development (CBF peak at 3 hr after impact)", "setting": "[1]; drop-weight-inflicted, drug-pretreated group", "value": "effectively suppressed SBD development"}, {"measurement": "suppression of SBD exacerbation (viable cell counts 48 hr vs 1 hr post-impact)", "setting": "[2]", "value": "could not completely suppress SBD exacerbation"}, {"measurement": "viable pyramidal cell counts per unit area, CA1 field, decrease compared with the control group", "setting": "[2]; 1 hr post-impact, non-treated 59.2%", "value": 66.4, "unit": "%"}, {"measurement": "viable pyramidal cell counts per unit area, CA1 field, decrease compared with the control group", "setting": "[2]; 48 hr post-impact, non-treated 44.5%", "value": 54.8, "unit": "%"}, {"measurement": "viable pyramidal cell counts per unit area, CA3 field, decrease (rate)", "setting": "[3]; 1 hr post-impact, non-treated 45.9%", "value": 63.0, "unit": "%"}, {"measurement": "viable pyramidal cell counts per unit area, CA3 field, decrease (rate)", "setting": "[3]; 48 hr post-impact, non-treated 37.6%", "value": 61.2, "unit": "%"}, {"measurement": "T2-weighted high-signal and T1-weighted low-signal areas (MRI)", "setting": "[4]", "value": "expanded"}, {"measurement": "CBF after the high values registered immediately after impact", "setting": "[5]; dogs subjected to DCN, drug-treated group (same as non-treated)", "value": "no subsequent changes thereafter"}, {"measurement": "damage field with time (MRI)", "setting": "[5]; dogs, DCN group with drug pretreatment", "value": "damage area had expanded"}]}
